Values joined by “and” are separate entries in the source; they are usually repeats but may differ in a detail not shown here. Equal entries are not always repeated.
Test system: pigeon
Assay: Screening experiment with pigeon on the repellency of treated maize seeds (two-bowl choice, treated vs untreated maize)
Assay type: in vivo
Conditions: for Food consumption of untreated maize (U), Day 1 / Food consumption of untreated maize (U), Day 2: untreated bowl beside treated bowl; for Mean food consumption of untreated maize per group and per day, day 0 / Mean food consumption of untreated maize per group and per day, day 1 / Mean food consumption of untreated maize per group and per day, day 3 / Food consumption of untreated maize (U), Mean/group / Food consumption of untreated maize (U), Mean/birds: untreated bowl; for Food consumption of untreated maize (U), Mean/group / Food consumption of treated maize (T), Mean/group: mean of 3 pigeons over Day 0-2; for Food consumption of untreated maize (U), Day 0: untreated bowl (40 g) offered beside treated bowl
Method: Screening Experiment with Pigeon on the Repellency of Maize Seeds Treated with Different Thiram and Propineb Formulations
15 singly housed pigeons were acclimated to maize as food source over a couple of days. From day—3 to day—1 they received exclusively untreated maize (40 g/bird). Food consumption was determined (see Table 1 below). All birds accepted maize seed as food. The different groups behaved similarly:
Food was offered in 2 bowls, one with treated, the other with untreated maize. The position of the two bowls was changed from day to day as well as during the day. Food consumption was again measured (see Table 2 below)
Group 1 (Aviary 1 to 3): Thiram 160 g/dt
Group 2 (Aviary 4 to 6): Thiram 80 g/dt
Group 3 (Aviary 7 to 9): Propineb160 g/dt
Group 4 (Aviary 10 to 12):Propineb 80 g/dt

[1] = 80 g/dt group, single pigeon, Day 1
[2] = 80 g/dt group, mean per bird over Day 0-2

| Molecule | Food consumption of untreated maize (U), Day 1 [1] | Food consumption of untreated maize (U), Day 2 (80 g/dt group, single pigeon) | Mean food consumption of untreated maize per group and per day, day 0 (80 g/dt group) [g] | Mean food consumption of untreated maize per group and per day, day 1 (80 g/dt group) [g] | Mean food consumption of untreated maize per group and per day, day 3 (80 g/dt group) [g] | Food consumption of untreated maize (U), Mean/group (80 g/dt group) [g] | Food consumption of untreated maize (U), Mean/birds [2] | Food consumption of untreated maize (U), Day 2 (160 g/dt group, single pigeon) | Mean food consumption of untreated maize per group and per day, day 0 (160 g/dt group) [g] | Mean food consumption of untreated maize per group and per day, day 1 (160 g/dt group) [g] | Mean food consumption of untreated maize per group and per day, day 3 (160 g/dt group) [g] | Food consumption of untreated maize (U), Mean/group (160 g/dt group) [g] | Mean food consumption of treated maize per group and per day, day 0 (maize treated at 80 g/dt) [g] | Mean food consumption of treated maize per group and per day, day 1 (maize treated at 80 g/dt) [g] | Mean food consumption of treated maize per group and per day, day 3 (maize treated at 80 g/dt) [g] | Food consumption of treated maize (T), Mean/group (maize treated at 80 g/dt) [g] | Mean food consumption of treated maize per group and per day, day 0 (maize treated at 160 g/dt) [g] | Mean food consumption of treated maize per group and per day, day 1 (maize treated at 160 g/dt) [g] | Mean food consumption of treated maize per group and per day, day 3 (maize treated at 160 g/dt) [g] | Food consumption of treated maize (T), Mean/group (maize treated at 160 g/dt) [g] | further results |
| --- | --- | --- | --- | --- | --- | --- | --- | --- | --- | --- | --- | --- | --- | --- | --- | --- | --- | --- | --- | --- | --- |
| CN(C)C(=S)SSC(=S)N(C)C [Thiram, reference compound] | 11.8 g and 18.4 g and 18.2 g | 14.5 g and 19.3 g and 19.7 g | 16.4 | 16.1 | 17.8 | 16.8 | 13.6 g and 17.8 g and 18.9 g | 14.5 g and 23.4 g and 23.0 g | 16.9 | 18.5 | 20.3 | 18.6 | 0.9 | 0.2 | 1.1 | 0.7 | 6.0 | 5.3 | 2.8 | 4.6 | Food consumption of untreated maize (U), Day 0 (80 g/dt seed treatment group, single pigeon (aviary), Day 0): 14.4 g and 15.8 g and 18.9 g; Food consumption of treated maize (T), Mean/birds (maize treated at 160 g/dt, mean per bird over Day 0-2): 0.0 g |
| Propineb | 17.5 g and 23.2 g and 20.6 g | 25.9 g and 27.5 g and 28.6 g | 14.1 | 20.4 | 27.3 | 20.6 | 20.1 g and 23.6 g and 18.0 g | 26.1 g and 19.9 g and 28.3 g | 22.6 | 24.8 | 24.8 | 24.4 | 2.8 | 2.1 | 0.0 | 1.7 | 0.0 | 0.6 | 0.0 | 0.2 | Food consumption of untreated maize (U), Day 1 (160 g/dt group, single pigeon, Day 1): 24.6 g and 19.5 g and 30.2 g; Food consumption of untreated maize (U), Mean/birds (160 g/dt group, mean per bird over Day 0-2): 24.6 g and 21.3 g and 26.2 g; Food consumption of untreated maize (U), Day 0 (160 g/dt seed treatment group, single pigeon (aviary), Day 0): 23.1 g and 24.6 g and 20.0 g; Bird repellent activity compared with Thiram (compared at the registered rate of Thiram, pigeon, treated maize seed): substantially better activity than Thiram; Food consumption of treated maize (T), Day 1 (maize treated at 80 g/dt, choice with untreated, single pigeon, Day 1): 2.9 g and 1.7 g and 1.8 g; Food consumption of treated maize (T), Day 2 (maize treated at 80 g/dt, choice with untreated, single pigeon): 0.0 g; Food consumption of treated maize (T), Day 0 (maize treated at 160 g/dt, 40 g offered beside 40 g untreated, single pigeon (aviary), Day 0): 0.0 g; Food consumption of treated maize (T), Day 2 (maize treated at 160 g/dt, choice with untreated, single pigeon): 0.0 g |

From patent US8586628B2, “Use of Propineb as bird repellent” (Bayer Cropscience AG, priority 2009, dated 2013)
